Test results from PMC8924334, “Synthesis of [^11C]carbonyl-labeled cyclohexyl (5-(2-acetamidobenzo[d]thiazol-6-yl)-2-methylpyridin-3-yl)carbamate ([^11C-carbonyl]PK68) as a potential PET tracer for receptor-interacting protein 1 kinase” (EJNMMI Radiopharmacy and Chemistry, 2022).

Experiments:
[1] = Lipophilicity (logD), n-octanol/PBS pH 7.4 shake-flask; format: physicochemical; details: n-octanol/PBS pH 7.4, room temperature
Procedure: An aliquot of 0.65 mL PBS and 0.65 mL n-octanol was removed and weighed, and its radioactivity was determined using an autogamma counter (2480 Wizard^2, Perkin-Elmer, Waltham, MA, USA). Each sample from the remaining organic layer was removed and repartitioned until a consistent logD value was obtained. The logD value was calculated by comparing the ratio of counts per minute (cpm)/g of n-octanol to that of PBS, and is expressed as logD = log[cpm/g (n-octanol)/cpm/g (PBS)]. All measurements were performed in triplicate.

[2] = Ex vivo biodistribution study; format: in vivo, mice; details: mean ± SD, n = 3
Procedure: Each mouse (8 weeks old, 37.9 ± 1.0 g) was injected with a bolus of [^11C]PK68 (2.7 MBq, 0.1 mL) via its tail vein. Three mice were sacrificed by cervical dislocation at each experimental time-point (1, 5, 15, 30, and 60 min) after the injection. The blood (heart contents), heart wall, lung, liver, pancreas, spleen, kidneys, adrenals, stomach (including contents), small intestine (including contents), large intestines (including contents), testes, muscles, and whole brain were removed quickly and weighed. The radioactivity in these tissues was measured with an autogamma scintillation counter (2480 Wizard^2) and expressed as %ID/g. All radioactivity measurements were corrected for decay.

## Cc1ncc(-c2ccc3nc(N[11C](C)=O)sc3c2)cc1NC(=O)OC1CCCCC1 [[^11C]PK68, Cyclohexyl (5-(2-[^11C-carbonyl]acetamidobenzo[d]thiazol-6-yl)-2-methylpyridin-3-yl)carbamate]
[1]
  logD: 4
[2]; 1 min after injection
  radioactivity in adrenals: 6.2 ± 2.7 %ID/g
  radioactivity in blood: 2.4 ± 0.3 %ID/g
  radioactivity in brain: 0.6 ± 0.0 %ID/g
  radioactivity in heart: 7.6 ± 0.3 %ID/g
  radioactivity in large intestine (including contents): 0.7 ± 0.1 %ID/g
  radioactivity in liver: 8.0 ± 0.8 %ID/g
  radioactivity in lung: 5.2 ± 0.2 %ID/g
  radioactivity in muscle: 1.9 ± 0.3 %ID/g
  radioactivity in pancreas: 3.4 ± 0.2 %ID/g
  radioactivity in small intestine (including contents): 1.8 ± 0.1 %ID/g
  radioactivity in spleen: 1.5 ± 0.2 %ID/g
  radioactivity in stomach (including contents): 1.2 ± 0.2 %ID/g
  radioactivity in testis: 0.3 ± 0.1 %ID/g
[2]; 5 min after injection
  radioactivity in adrenals: 4.0 ± 0.5 %ID/g
  radioactivity in blood: 1.3 ± 0.2 %ID/g
  radioactivity in brain: 0.4 ± 0.0 %ID/g
  radioactivity in heart: 2.8 ± 0.3 %ID/g
  radioactivity in kidney: 9.9 ± 0.4 %ID/g
  radioactivity in large intestine (including contents): 0.9 ± 0.1 %ID/g
  radioactivity in liver: 17.2 ± 0.7 %ID/g
  radioactivity in lung: 2.6 ± 0.2 %ID/g
  radioactivity in muscle: 1.1 ± 0.1 %ID/g
  radioactivity in pancreas: 2.7 ± 0.3 %ID/g
  radioactivity in small intestine (including contents): 3.3 ± 0.1 %ID/g
  radioactivity in spleen: 1.6 ± 0.1 %ID/g
  radioactivity in stomach (including contents): 2.0 ± 0.1 %ID/g
  radioactivity in testis: 0.3 ± 0.0 %ID/g
[2]; 15 min after injection
  radioactivity in adrenals: 3.3 ± 0.5 %ID/g
  radioactivity in blood: 1.1 ± 0.1 %ID/g
  radioactivity in brain: 0.3 ± 0.0 %ID/g
  radioactivity in heart: 2.1 ± 0.3 %ID/g
  radioactivity in kidney: 7.7 ± 1.0 %ID/g
  radioactivity in large intestine (including contents): 1.4 ± 0.3 %ID/g
  radioactivity in liver: 15.6 ± 0.8 %ID/g
  radioactivity in lung: 2.1 ± 0.3 %ID/g
  radioactivity in muscle: 0.8 ± 0.1 %ID/g
  radioactivity in pancreas: 2.1 ± 0.3 %ID/g
  radioactivity in small intestine (including contents): 9.8 ± 3.1 %ID/g
  radioactivity in spleen: 1.4 ± 0.2 %ID/g
  radioactivity in stomach (including contents): 4.0 ± 1.2 %ID/g
  radioactivity in testis: 0.3 ± 0.0 %ID/g
[2]; 30 min after injection
  radioactivity in adrenals: 2.1 ± 0.8 %ID/g
  radioactivity in blood: 0.8 ± 0.1 %ID/g
  radioactivity in brain: 0.2 ± 0.0 %ID/g
  radioactivity in heart: 1.3 ± 0.1 %ID/g
  radioactivity in kidney: 6.2 ± 0.6 %ID/g
  radioactivity in large intestine (including contents): 1.7 ± 0.4 %ID/g
  radioactivity in liver: 10.7 ± 0.3 %ID/g
  radioactivity in lung: 1.5 ± 0.2 %ID/g
  radioactivity in muscle: 0.6 ± 0.1 %ID/g
  radioactivity in pancreas: 1.4 ± 0.1 %ID/g
  radioactivity in small intestine (including contents): 16.7 ± 1.4 %ID/g
  radioactivity in spleen: 0.9 ± 0.0 %ID/g
  radioactivity in stomach (including contents): 4.7 ± 1.0 %ID/g
  radioactivity in testis: 0.3 ± 0.0 %ID/g
[2]; 60 min after injection
  radioactivity in adrenals: 1.2 ± 0.1 %ID/g
  radioactivity in blood: 0.5 ± 0.1 %ID/g
  radioactivity in brain: 0.1 ± 0.0 %ID/g
  radioactivity in heart: 0.7 ± 0.1 %ID/g
  radioactivity in kidney: 3.2 ± 0.1 %ID/g
  radioactivity in large intestine (including contents): 2.6 ± 0.6 %ID/g
  radioactivity in liver: 6.0 ± 0.2 %ID/g
  radioactivity in lung: 0.8 ± 0.1 %ID/g
  radioactivity in muscle: 0.3 ± 0.0 %ID/g
  radioactivity in pancreas: 0.8 ± 0.1 %ID/g
  radioactivity in small intestine (including contents): 27.7 ± 3.0 %ID/g
  radioactivity in spleen: 0.5 ± 0.1 %ID/g
  radioactivity in stomach (including contents): 7.2 ± 2.4 %ID/g
  radioactivity in testis: 0.2 ± 0.0 %ID/g
